Assay: Human HepG2 cell viability assay in 384 well format
Assay type: toxicity, cell-based
Design: dose 125 nL, time 70.5 hour; concentration not given beside the values
Conditions: HepG2 cells, read-out: Inhibition
`CS(=O)(=O)c1cccc(C(=O)NCc2nc3cc(F)ccc3[nH]2)c1` gave a cytotoxicity at 70.5 h of -5.23%.
Molecule `Cc1cc(NCC(=O)NCC(F)(F)F)nc(-c2ccncc2)n1` has a cytotoxicity at 70.5 h of -8.33%.
In the case of `Cc1cc(C(=O)NCc2ccccc2CN(C)Cc2ccco2)on1`, the cytotoxicity at 70.5 h is reported as 9.59%.
Molecule `Cc1ccccc1CNC(=O)CN1CCCC(Cc2nccn2C)C1` (stereo unspecified) has a cytotoxicity at 70.5 h of -1.13%.
Molecule `O=C(N1CCCO1)[C@@]12CCO[C@@H]1CCN(Cc1cccs1)C2` has a cytotoxicity at 70.5 h of 34.4%.
In the case of `CN(CCSc1nncn1C(C)(C)C)c1ccccc1`, the cytotoxicity at 70.5 h is reported as 31%.
For `O=C1CCCN1c1cccc(CNCc2nc(C3CC3)no2)c1`, the cytotoxicity at 70.5 h was 8.67%.
In the case of `Cc1ccc(N2CCCC(NCC(=O)NC(C3CC3)C3CC3)C2)nn1` (stereo unspecified), the cytotoxicity at 70.5 h is reported as -8.53%.
`c1cc(CN2CCOC3(CCCC3)C2)no1` showed a cytotoxicity at 70.5 h of -2.72%.
With `COc1ccc(CN2CCC(CO)(Cc3ccc(Cl)cc3)CC2)c(O)c1` the cytotoxicity at 70.5 h was -11.2%.
`COCC1CN(S(=O)(=O)N(C)C)Cc2ncn(CC3CC3)c21` (stereo unspecified) showed a cytotoxicity at 70.5 h of 2.72%.
`COc1ccc(CNCCc2cccc(C(N)=O)c2)cc1C` showed a cytotoxicity at 70.5 h of 11.7%.
In the case of `NC(=O)c1c(-c2ccc(Cl)cc2Cl)csc1NC(=O)CCCC(=O)O`, the cytotoxicity at 70.5 h is reported as 4.32%.
For `O=C1O[C@@H]2CN(c3ccccn3)C[C@@H]2N1CCCc1ccc(F)cc1`, the cytotoxicity at 70.5 h was -14.3%.
For `CCN1CCN(C2CCN(C(C(N)=O)c3ccc(F)cc3)CC2)C1=O` (stereo unspecified), the cytotoxicity at 70.5 h was 5.11%.
With `Cn1cnnc1CN1CCC2(CCCN(C3CCCCC3)C2=O)C1` (stereo unspecified) the cytotoxicity at 70.5 h was -1.45%.
`Cn1cc(C(=O)N2CCC(c3nccn3Cc3ccncc3)CC2)cn1` showed a cytotoxicity at 70.5 h of -7.19%.
In the case of `CNC(=O)C(C)(C)CNC(=O)Nc1ccc(C)cn1`, the cytotoxicity at 70.5 h is reported as -3.94%.
For `CN1CCN(CCCNS(=O)(=O)Cc2ccccc2F)CC1`, the cytotoxicity at 70.5 h was -0.252%.
For `COc1ncccc1CN1C[C@@H]2COC[C@]2(CNC(=O)c2ccno2)C1`, the cytotoxicity at 70.5 h was -15.5%.
In the case of `O=C(O)CSc1nnc(-c2ccn[nH]2)n1-c1ccccc1Cl`, the cytotoxicity at 70.5 h is reported as -6.93%.
For `Cc1nn(CC(C)C)c(C)c1CC(=O)N1CCCC(CNS(C)(=O)=O)C1` (stereo unspecified), the cytotoxicity at 70.5 h was -13.2%.
Molecule `CCN(CCOC)C(=O)c1ccc2c(c1)nc(N1CC[C@H](O)C1)n2C` has a cytotoxicity at 70.5 h of -8.67%.
`Cc1nc(NC(=O)C(C)N2CCN(c3ncccn3)CC2)sc1C` (stereo unspecified) showed a cytotoxicity at 70.5 h of -8.18%.
In the case of `Cc1n[nH]c(C)c1Sc1ccccc1NC(=O)N1CCN(C)CC1`, the cytotoxicity at 70.5 h is reported as 50.2%.
`CC(C)(C)c1coc([C@@H]2COCCN2Cc2ccccn2)n1` showed a cytotoxicity at 70.5 h of 2.91%.
With `Cc1nc(C2CCCN2CC(=O)Nc2c(C)nn(C)c2C)no1` (stereo unspecified) the cytotoxicity at 70.5 h was -3.49%.
For `c1cncc(O[C@H]2COCCN(Cc3c[nH]c4ccccc34)C2)c1`, the cytotoxicity at 70.5 h was 4.1%.
`O=C(Cc1ccccn1)N1CCc2c(O)nc(-c3cnccn3)nc2C1` gave a cytotoxicity at 70.5 h of -6.46%.
In the case of `CC(=O)N(C)C1CCN(C(=O)NCC(C)Cc2cccs2)CC1` (stereo unspecified), the cytotoxicity at 70.5 h is reported as -2.57%.
Work on `Cc1c(Cl)cccc1S(=O)(=O)N1C[C@@H]2CC[C@H](C1)N(C)C2=O` yielded a cytotoxicity at 70.5 h of 1.2%.
`Cc1nc(CNC(=O)Nc2cc(F)ccc2N2CCN(C)CC2)no1` gave a cytotoxicity at 70.5 h of -2.28%.
`Cc1cnn(CC2CCCCN2C(=O)c2ccc3[nH]cnc3c2)c1` (stereo unspecified) showed a cytotoxicity at 70.5 h of 8.11%.
In the case of `CN(c1ccccc1)c1ccc(CC2CCCN(CCO)C2)nn1` (stereo unspecified), the cytotoxicity at 70.5 h is reported as 30.2%.
For `CCc1nc2ccccc2c(=O)n1CC1(O)CCN(C(=O)COC)CC1`, the cytotoxicity at 70.5 h was -2.82%.
`Cn1cccc1C(=O)N1CCC2(CC1)CN(c1ccccc1)C(=O)CO2` showed a cytotoxicity at 70.5 h of -14.1%.
With `Cc1cc(C)n(CC2CCCN2C(=O)c2cnn(C)c2C2CC2)n1` (stereo unspecified) the cytotoxicity at 70.5 h was -11.8%.
`Cc1cccc(C2CCCN2C(=O)CN(C)S(C)(=O)=O)c1C` (stereo unspecified) gave a cytotoxicity at 70.5 h of -5.26%.
In the case of `COc1ccc(C(=O)NS(=O)(=O)c2cncc(Br)c2)cc1OC`, the cytotoxicity at 70.5 h is reported as -3.31%.
`O=C(Cc1cccc(O)c1)NCCNc1nccc(C(F)(F)F)n1` gave a cytotoxicity at 70.5 h of -7.29%.
`Cn1ccnc1-c1noc(NCc2ccccc2)n1` showed a cytotoxicity at 70.5 h of -7.49%.
Work on `Cc1ncc(CC(=O)N2CCC3(CCC(=O)N(CCO)C3)CC2)c(=O)[nH]1` yielded a cytotoxicity at 70.5 h of -13.5%.
In the case of `Cc1cnn(CCNCC(O)COc2ccc3ccccc3c2)c1` (stereo unspecified), the cytotoxicity at 70.5 h is reported as -0.298%.
With `CSc1ncn(-c2nc(N(C)C)nc(N(C)C)n2)n1` the cytotoxicity at 70.5 h was 36.4%.
`CC1CCc2c(c3ccccc3[nH]c2=O)O1` (stereo unspecified) gave a cytotoxicity at 70.5 h of -6.86%.
`CC(C)Oc1cccc(Cc2nc3c([nH]2)CCCNC3=O)c1` gave a cytotoxicity at 70.5 h of -4.78%.
With `COCCN(Cc1ccc(F)cc1Cl)C(=O)c1cc(C)no1` the cytotoxicity at 70.5 h was -1.27%.
In the case of `CCN(CC)S(=O)(=O)N1C[C@@H]2CC[C@H](C1)N(Cc1cscn1)C2=O`, the cytotoxicity at 70.5 h is reported as -9.09%.
In the case of `Cc1cc(CNC(=O)NCC(O)c2cccc(C(F)(F)F)c2)no1` (stereo unspecified), the cytotoxicity at 70.5 h is reported as 1.91%.
For `CCCS(=O)(=O)N1C[C@H]2OC(=O)N(CCc3cccc(Cl)c3)[C@H]2C1`, the cytotoxicity at 70.5 h was -4.21%.
`CN(Cc1ccc(F)cc1)C(=O)NCc1nnc2n1CCCCC2` gave a cytotoxicity at 70.5 h of 33.6%.
In the case of `Cc1ccc(N2CCCC(NCc3nnc4n3CCCC4)C2=O)cc1` (stereo unspecified), the cytotoxicity at 70.5 h is reported as -10.2%.
Work on `Cc1cc2nc(SCC(=O)N3CCOCC3)n(C(C)C)c(=O)c2[nH]1` yielded a cytotoxicity at 70.5 h of -5.42%.
Molecule `COc1ccc(CNc2ncnc3c2NC(=O)CN3)cc1` has a cytotoxicity at 70.5 h of -6.06%.
Molecule `CCc1cnc2c(c1NCc1ccncc1)c(=O)n(C)c(=O)n2C` has a cytotoxicity at 70.5 h of -8.17%.
Molecule `Cc1cnn(Cc2cc(F)ccc2F)c1NC(=O)C1COCCO1` (stereo unspecified) has a cytotoxicity at 70.5 h of -0.231%.

Reference: ChEMBL document CHEMBL3507680, “University of Dundee, Gates Library screen for HepG2 cell viability”
